Patent publication US6998404B2, “Treatment or prevention of acute renal failure” (priority 2001, dated 2006)
Like-named read-outs stand apart in the source and are kept apart here.

Experiments:
[1] = radiocontrast nephropathy, impaired renal excretory, endocrine and tubular function, cited from earlier work
[2] = patients, aminophylline toxicity; cited from earlier work
[3] = human trials, radio-contrast renal injury, IV, administered before the toxic insult; cited from earlier work
[4] = treatment of oliguric prerenal acute renal failure, need for dialysis; format: in vivo, human; details: patients with acute renal failure progressed to oliguria (less than 300 ml urine output per day)
Excerpt: Adenosine receptor antagonists, especially aminophyllline, are used to treat or prevent acute renal failure. Adenosine antagonists are suited for prerenal acute renal failure only.

[5] = rat, glycerol-induced ARF, IV, administered before the toxic insult; cited from earlier work
[6] = cyclosporin-A-induced renal failure with renal vasoconstriction; cited from earlier work

Cn1c(=O)c2[nH]cnc2n(C)c1=O [Theophyllin E]
protective role in preventing RCN [1]: effective in preventing RCN impaired renal excretory, endocrine and tubular function

Cn1c(=O)c2[nH]cnc2n(C)c1=O [aminophylline]
serum theophylline level at which nausea and vomiting usually occur [2]: around 20 micrograms/ml
prevention of ARF [3]: dramatic in preventing ARF
patients in whom the need for dialysis is obviated [4]: over 50%
prevention of ARF [5]: dramatic in preventing ARF
protective role in preventing RCN ([1]; listed as Aminophylline): does not appear to add a protective role in preventing RCN

Cn1c(=O)c2[nH]cnc2n(C)c1=O [theophylline]
restoration of renal function [6]: restored renal function significantly
